Measurements: ChEMBL document CHEMBL1147427, “2-hydroxy-4-isopropylbenzaldehyde, a potent partial tyrosinase inhibitor” (Bioorg Med Chem Lett, 2004)

Tested on: Tyrosinase (Agaricus bisporus)
Test: Inhibitory activity at a concentration of 0.5 nm, was evaluated against the oxidation of L-3,4-dihydroxyphenylalanine (L-DOPA) catalyzed by mushroom tyrosinase; No inhibitory activity

IC50: No inhibition
Structure (SMILES): COc1cc(C(C)C)ccc1C=O
